Reference: US10245261B2, “Substituted indol-5-ol derivatives and their therapeutic applications” (NantBioScience, Inc., priority 2013, dated 2019)

What was measured:
Test in all cases: KinaseProfiler kinase assay
Format in all cases: biochemical
Flt3(h) = biological target: T1, Flt3(h) (Homo sapiens, UniProt P36888)
T1 sequence (P36888 27-993): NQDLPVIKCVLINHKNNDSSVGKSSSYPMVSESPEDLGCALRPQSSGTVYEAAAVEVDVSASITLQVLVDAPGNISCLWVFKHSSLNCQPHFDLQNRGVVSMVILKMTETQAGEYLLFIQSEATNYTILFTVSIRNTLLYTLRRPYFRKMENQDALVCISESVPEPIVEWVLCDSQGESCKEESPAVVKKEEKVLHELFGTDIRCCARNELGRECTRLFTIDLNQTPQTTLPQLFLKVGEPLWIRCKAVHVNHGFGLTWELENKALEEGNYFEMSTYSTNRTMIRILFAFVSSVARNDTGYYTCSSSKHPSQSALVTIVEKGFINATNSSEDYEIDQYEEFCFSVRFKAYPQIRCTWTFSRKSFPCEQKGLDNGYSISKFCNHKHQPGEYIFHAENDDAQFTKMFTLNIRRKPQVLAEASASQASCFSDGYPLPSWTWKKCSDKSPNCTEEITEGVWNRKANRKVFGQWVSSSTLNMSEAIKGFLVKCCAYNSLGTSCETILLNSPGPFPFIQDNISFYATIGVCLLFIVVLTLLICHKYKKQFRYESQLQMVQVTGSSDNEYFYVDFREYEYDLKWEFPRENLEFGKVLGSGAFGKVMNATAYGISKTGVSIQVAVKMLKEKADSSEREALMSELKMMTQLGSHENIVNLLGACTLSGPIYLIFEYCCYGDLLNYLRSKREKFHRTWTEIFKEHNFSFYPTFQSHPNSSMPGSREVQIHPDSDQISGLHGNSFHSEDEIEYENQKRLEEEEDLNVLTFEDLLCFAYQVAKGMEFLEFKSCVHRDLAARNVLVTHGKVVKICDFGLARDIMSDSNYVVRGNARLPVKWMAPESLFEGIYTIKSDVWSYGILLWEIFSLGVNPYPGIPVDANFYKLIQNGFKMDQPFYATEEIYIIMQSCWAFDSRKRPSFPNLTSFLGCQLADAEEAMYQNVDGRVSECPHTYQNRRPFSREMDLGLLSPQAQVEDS
Method: (§1) This example tests the inhibitory properties of representative compounds of the invention in c-Src kinase, Aurora-A kinase, Flt3 kinase, Ret kinase and TrkA Kinase assays (see, Daniele Fancelli et al, J. Med. Chem., 2006, 49 (24), pp 7247-7251). The KinaseProfiler™ Service Assay Protocols (Millipore) was used to test the kinase inhibiting activity of novel compounds from this invention. To do this, the buffer composition was as: 20 mM MOPS, 1 mM EDTA, 0.01% Brij-35, 5% Glycerol, 0.1% β-mercaptoethanol, 1 mg/mL BSA. Test compounds were initially dissolved in DMSO at the desired concentration, then serially diluted to the kinase assay buffer. In a final reaction volume of 25 μL, Aurora-A(h) (5-10 mU) is incubated with 8 mM MOPS pH 7.0, 0.2 mM EDTA, 200 μM LRRASLG (Kemptide), 10 mM MgAcetate and [γ^33P-ATP]. The reaction was initiated by the addition of the MgATP mix. After incubation for 40 minute at room temperature, the reaction was stopped by addition of 5 μL of a 3% phosphoric acid solution. 10 μL of the reaction was then spotted onto a P30 filtermat and washed three times for 5 minutes in 50 mM phosphoric acid and once in methanol prior to drying and scintillation counting. Wells containing substrate but no kinase and wells containing a phosphopeptide control were used to set 0% and 100% phosphorylation value, respectively.
(§2) The Kinase Hotspot℠ kinase assay was also used to test the compounds for IC50 or % inhibitions (Reaction Biology Corp.). Inhibitory IC50 values were determined by titration of compound at the optimal kinase concentration (Kinase EC50).

Aurora-A(h) = biological target: T2, Aurora-A(h) (Homo sapiens, UniProt O14965); settings: read-out: % Inhibition @1 μM Auroro-A
T2 sequence (O14965 1-403): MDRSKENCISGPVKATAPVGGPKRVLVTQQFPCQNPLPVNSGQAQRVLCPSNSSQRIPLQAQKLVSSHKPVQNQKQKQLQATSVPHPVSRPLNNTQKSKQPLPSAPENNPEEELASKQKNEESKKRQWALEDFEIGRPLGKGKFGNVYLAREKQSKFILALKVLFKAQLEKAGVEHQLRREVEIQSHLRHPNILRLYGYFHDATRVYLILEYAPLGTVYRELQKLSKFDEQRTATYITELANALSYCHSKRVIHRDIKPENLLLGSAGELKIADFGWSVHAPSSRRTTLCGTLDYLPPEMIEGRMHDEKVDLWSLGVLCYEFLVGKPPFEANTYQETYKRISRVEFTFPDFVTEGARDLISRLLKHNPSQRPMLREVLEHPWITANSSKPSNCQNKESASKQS
Method: as §1, §2

Ret(h) = Ret(h) (Homo sapiens, UniProt P07949)
Ret(h), sequence (P07949 29-1114): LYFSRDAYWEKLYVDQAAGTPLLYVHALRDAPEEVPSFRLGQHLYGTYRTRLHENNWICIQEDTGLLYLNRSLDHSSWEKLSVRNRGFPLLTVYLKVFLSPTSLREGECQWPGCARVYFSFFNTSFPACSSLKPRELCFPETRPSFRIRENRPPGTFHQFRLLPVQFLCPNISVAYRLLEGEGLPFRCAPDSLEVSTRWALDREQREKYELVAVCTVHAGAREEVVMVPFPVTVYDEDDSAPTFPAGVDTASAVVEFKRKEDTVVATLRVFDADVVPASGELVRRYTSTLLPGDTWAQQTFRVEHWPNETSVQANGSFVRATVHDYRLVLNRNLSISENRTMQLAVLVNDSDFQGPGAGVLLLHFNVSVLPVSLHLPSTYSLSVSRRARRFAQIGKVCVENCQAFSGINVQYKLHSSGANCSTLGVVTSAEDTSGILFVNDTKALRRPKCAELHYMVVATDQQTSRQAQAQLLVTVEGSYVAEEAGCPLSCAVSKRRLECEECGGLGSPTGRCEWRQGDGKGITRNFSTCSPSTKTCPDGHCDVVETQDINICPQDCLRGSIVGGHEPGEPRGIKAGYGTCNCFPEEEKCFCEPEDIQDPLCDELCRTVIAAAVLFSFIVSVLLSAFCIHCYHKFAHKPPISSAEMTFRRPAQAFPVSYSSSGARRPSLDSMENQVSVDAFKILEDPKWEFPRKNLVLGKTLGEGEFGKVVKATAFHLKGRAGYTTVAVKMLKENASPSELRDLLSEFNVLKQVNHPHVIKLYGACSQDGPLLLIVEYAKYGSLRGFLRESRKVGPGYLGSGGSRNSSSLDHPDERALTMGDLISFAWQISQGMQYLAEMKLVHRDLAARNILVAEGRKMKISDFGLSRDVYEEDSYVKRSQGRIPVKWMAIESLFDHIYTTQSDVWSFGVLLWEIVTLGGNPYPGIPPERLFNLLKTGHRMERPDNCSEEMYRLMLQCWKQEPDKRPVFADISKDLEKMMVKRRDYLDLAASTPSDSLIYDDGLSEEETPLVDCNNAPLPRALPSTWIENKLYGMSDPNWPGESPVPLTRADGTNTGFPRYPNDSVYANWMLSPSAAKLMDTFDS
Method: as §1, §2

cSRC(h) = cSRC(h) (Homo sapiens, UniProt P12931)
cSRC(h), sequence (P12931 whole entry): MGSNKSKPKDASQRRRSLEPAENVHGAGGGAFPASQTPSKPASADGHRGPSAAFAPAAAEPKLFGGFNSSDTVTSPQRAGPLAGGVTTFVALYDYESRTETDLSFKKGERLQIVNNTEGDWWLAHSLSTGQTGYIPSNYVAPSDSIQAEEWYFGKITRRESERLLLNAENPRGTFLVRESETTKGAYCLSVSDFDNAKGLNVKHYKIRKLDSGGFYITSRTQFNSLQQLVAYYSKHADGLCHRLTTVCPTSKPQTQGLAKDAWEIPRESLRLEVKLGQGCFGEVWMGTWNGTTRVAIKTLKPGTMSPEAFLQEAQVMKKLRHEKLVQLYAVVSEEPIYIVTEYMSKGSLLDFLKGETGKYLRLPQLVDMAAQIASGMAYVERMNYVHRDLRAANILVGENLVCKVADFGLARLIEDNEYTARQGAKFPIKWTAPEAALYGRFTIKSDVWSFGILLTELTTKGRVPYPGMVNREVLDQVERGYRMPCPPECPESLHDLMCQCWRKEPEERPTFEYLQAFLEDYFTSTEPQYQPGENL
Method: as §1, §2

Abl(h) = Abl(h) (Homo sapiens, UniProt P00519)
Abl(h), sequence (P00519 whole entry): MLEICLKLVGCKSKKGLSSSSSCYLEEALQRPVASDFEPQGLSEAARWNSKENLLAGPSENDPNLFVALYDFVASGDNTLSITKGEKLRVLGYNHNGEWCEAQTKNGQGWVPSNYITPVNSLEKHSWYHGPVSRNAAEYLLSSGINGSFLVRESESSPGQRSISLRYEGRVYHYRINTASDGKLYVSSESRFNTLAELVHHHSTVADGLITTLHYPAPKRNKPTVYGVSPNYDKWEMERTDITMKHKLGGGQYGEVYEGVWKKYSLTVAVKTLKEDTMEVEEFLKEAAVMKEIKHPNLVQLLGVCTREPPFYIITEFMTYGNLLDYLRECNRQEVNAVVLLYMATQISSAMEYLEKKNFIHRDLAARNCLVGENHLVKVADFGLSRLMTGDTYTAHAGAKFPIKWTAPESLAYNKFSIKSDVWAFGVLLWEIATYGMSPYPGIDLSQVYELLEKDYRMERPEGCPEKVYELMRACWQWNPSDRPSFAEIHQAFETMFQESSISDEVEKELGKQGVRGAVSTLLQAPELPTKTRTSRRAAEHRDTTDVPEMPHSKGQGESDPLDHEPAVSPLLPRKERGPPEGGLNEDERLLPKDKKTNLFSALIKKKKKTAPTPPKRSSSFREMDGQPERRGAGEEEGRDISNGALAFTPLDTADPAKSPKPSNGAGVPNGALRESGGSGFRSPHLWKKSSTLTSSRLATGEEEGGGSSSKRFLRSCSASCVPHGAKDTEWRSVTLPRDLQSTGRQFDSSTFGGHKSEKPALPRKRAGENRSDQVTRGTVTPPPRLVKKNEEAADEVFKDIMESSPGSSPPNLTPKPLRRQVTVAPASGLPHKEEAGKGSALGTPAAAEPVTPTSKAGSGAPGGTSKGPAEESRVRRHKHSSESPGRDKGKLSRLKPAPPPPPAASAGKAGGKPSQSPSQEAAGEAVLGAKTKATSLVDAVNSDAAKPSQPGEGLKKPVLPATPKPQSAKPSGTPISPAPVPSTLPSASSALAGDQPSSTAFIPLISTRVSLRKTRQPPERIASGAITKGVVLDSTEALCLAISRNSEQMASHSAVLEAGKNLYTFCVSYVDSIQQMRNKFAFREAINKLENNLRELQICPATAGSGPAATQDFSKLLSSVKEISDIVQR

KDR(h) = KDR(h) (Homo sapiens, UniProt P35968)
KDR(h), sequence (P35968 20-1356): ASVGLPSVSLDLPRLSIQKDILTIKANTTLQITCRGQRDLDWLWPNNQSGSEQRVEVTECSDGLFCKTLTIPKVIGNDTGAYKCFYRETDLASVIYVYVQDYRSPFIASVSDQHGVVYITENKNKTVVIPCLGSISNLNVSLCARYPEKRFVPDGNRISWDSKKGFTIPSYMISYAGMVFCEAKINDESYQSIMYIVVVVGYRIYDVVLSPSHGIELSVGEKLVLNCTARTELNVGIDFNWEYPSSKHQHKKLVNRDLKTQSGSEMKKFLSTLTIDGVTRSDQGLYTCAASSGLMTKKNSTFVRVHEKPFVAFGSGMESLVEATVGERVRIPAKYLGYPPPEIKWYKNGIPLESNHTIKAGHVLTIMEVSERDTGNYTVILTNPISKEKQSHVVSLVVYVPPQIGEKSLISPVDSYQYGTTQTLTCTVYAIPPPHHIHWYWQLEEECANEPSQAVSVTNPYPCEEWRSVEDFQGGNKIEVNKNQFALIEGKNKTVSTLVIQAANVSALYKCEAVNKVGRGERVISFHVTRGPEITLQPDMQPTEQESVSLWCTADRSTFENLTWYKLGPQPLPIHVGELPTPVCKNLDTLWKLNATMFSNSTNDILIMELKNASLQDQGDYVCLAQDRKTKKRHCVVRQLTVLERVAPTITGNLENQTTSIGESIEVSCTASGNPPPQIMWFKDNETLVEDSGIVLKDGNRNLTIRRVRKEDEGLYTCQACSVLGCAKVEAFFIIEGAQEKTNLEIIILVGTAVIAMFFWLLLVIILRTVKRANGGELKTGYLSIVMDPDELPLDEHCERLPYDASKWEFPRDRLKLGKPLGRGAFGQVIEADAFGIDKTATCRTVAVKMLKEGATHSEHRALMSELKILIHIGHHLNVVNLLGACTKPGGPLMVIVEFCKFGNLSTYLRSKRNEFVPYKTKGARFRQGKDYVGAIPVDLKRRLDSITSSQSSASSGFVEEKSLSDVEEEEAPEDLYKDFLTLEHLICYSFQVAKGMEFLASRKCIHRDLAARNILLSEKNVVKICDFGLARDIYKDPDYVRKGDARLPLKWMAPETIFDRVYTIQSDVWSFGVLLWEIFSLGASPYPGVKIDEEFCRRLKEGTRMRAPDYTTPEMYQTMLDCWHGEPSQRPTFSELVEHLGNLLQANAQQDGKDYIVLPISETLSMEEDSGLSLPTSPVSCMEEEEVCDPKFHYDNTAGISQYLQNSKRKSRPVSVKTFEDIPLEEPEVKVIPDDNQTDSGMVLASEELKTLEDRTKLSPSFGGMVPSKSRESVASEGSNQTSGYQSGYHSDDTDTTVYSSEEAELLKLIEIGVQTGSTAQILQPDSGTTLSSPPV

| SMILES | inhibition at 1 µM (Flt3(h)) | inhibition at 1 µM (Aurora-A(h)) | inhibition at 1 µM (Ret(h)) | inhibition at 1 µM (cSRC(h)) | inhibition at 1 µM (Abl(h)) | inhibition at 1 µM (KDR(h)) |
| --- | --- | --- | --- | --- | --- | --- |
| COCC1CCN(c2cc(Nc3cc(C4CC4)[nH]n3)nc(Oc3ccc4[nH]c(C)cc4c3F)n2)C1 (stereo not drawn) [Compound 44] | 100% | 97% | 100% | 102% | 94% | 90% |
| Cc1cc2c(F)c(Oc3nc(Nc4cc(C5CC5)[nH]n4)cc(N4CCN(CCF)CC4)n3)ccc2[nH]1 [Compound 45] | 101% | 99% | 102% | 107% | 107% | 95% |
| C/C=C/c1cc(Nc2cc(N3CCN(CCOC)CC3)nc(Oc3ccc4[nH]c(C)cc4c3F)n2)n[nH]1 [Compound 54] | 99% | 85% | 100% | 99% | 108% | 96% |
| C/C=C/c1cc(Nc2cc(N3CCN(S(C)(=O)=O)CC3)nc(Oc3ccc4[nH]c(C)cc4c3F)n2)n[nH]1 [Compound 55] | 99% | 101% | 101% | 101% | 110% | 96% |
| C/C=C/c1cc(Nc2cc(N3CCN(C(C)=O)CC3)nc(Oc3ccc4[nH]c(C)cc4c3F)n2)n[nH]1 [Compound 56] | 99% | 99% | 101% | 100% | 111% | 96% |
| C/C=C/c1cc(Nc2cc(N3CCS(=O)(=O)CC3)nc(Oc3ccc4[nH]c(C)cc4c3F)n2)n[nH]1 [Compound 57] | 100% | 96% | 102% | 99% | 111% | 95% |
| C/C=C/c1cc(Nc2cc(N3CCC(OC)CC3)nc(Oc3ccc4[nH]c(C)cc4c3F)n2)n[nH]1 [Compound 58] | 99% | 90% | 102% | 101% | 112% | 96% |
| C/C=C/c1cc(Nc2cc(N3CCC(O)CC3)nc(Oc3ccc4[nH]c(C)cc4c3F)n2)n[nH]1 [Compound 59] | 99% | 94% | 102% | 100% | 112% | 96% |
| C/C=C/c1cc(Nc2cc(N3CCC(OC)C3)nc(Oc3ccc4[nH]c(C)cc4c3F)n2)n[nH]1 (stereo not drawn) [Compound 60] | 99% | 97% | 102% | 101% | 111% | 95% |
| C/C=C/c1cc(Nc2cc(N3CCC(O)C3)nc(Oc3ccc4[nH]c(C)cc4c3F)n2)n[nH]1 (stereo not drawn) [Compound 61] | 100% | 95% | 102% | 100% | 112% | 97% |
